In patent US10961180B2, “Branched trialkyl amine oxides” (Eastman Chemical Company, priority 2018, dated 2021):

Experiments:
zein protein = tested on: zein protein; set-up: species or system corn; conditions: 1% surfactant solution, 30 C, 30 min, triplicate
Experimental: For the test, 0.0750 g of zein protein is transferred into a 1.5 mL centrifuge tube. To this 1.5 mL of 1% surfactant solution is added, mixed, and placed in a 30 C incubator with mild stirring for 30 minutes. After 30 minutes has elapsed, the tube is centrifuged for 30 min at 3600 rpm. The solution is filtered through a pre-weighed 8 micron filter paper, and then dried overnight in a 50° C. oven. The insoluble zein residue is then weighed and the wt % Zein dissolved is calculated using the equation below. Each solution is analyzed in triplicate. The Zein score is normalized to a standard included in each set of tests, in this case LAE10; (% zein dissolved=(total zein added−total zein after drying÷Total zein added)×100).

[1] = Foam height, high shear (Waring blender) in deionized water; format: physicochemical; conditions: for Foam volume (ml) 5 min / Foam volume (ml) Initial: 0.05 wt % in deionized water; for Foam volume (ml) 5 min: after 5 min; for Foam volume (ml) Initial: blended High 30 s
Experimental: The surface foam volume and persistence of the amine oxides with linear and branched hydrophobes from Examples 43 and 44 were compared. A 0.05 wt % (actives basis) solution of the test surfactant was made in deionized water. 250 ml of the test solution was added the beaker of a Waring blender, capped, and then blended on High for 30 seconds and immediately transferred to a 1 L graduated cylinder. The total volume of foam plus liquid, as well as the liquid layer alone was recorded. The foam and liquid volumes were recorded again after 5 minutes.

[2] = Foaming in diluted commercial laundry liquid (Persil Original), Waring blender; format: physicochemical; conditions: for Difference: initial minus 5 min
Experimental: The surface foam volume and foam persistence of solutions of the amine oxides with linear and branched hydrophobes from Examples 25 and 26 were compared. A commercial laundry liquid was diluted in deionized water according to the dosing instructions; 4.2 ml/L Persil Original. The diluted detergent was supplemented with 0%, 2%, 5% (based on wt laundry liquid) of LAO or Branched C12 AO,(2,4-diethyl-N,N-dimethyloctan-1-amine oxide, Example 66), and the solutions mixed briefly and used immediately. 250 ml of each test solution was added the beaker of a Waring blender, capped, and then blended on High for 30 seconds and immediately transferred to a 1 L graduated cylinder. The total volume of foam plus liquid, as well as the liquid layer alone was recorded. The foam and liquid volumes were recorded again after 5 minutes. All tests were performed in triplicate.

[3] = Draves Wetting Test (ASTM D2281-68), wet-out time; format: physicochemical; conditions: 0.05 wt % actives in DI water, average of 3
Experimental: The surface wetting ability of the amine oxides with linear and branched hydrophobes from Examples 43 to 45 were compared using the Draves Wetting Test (ASTM D2281-68). A 0.05 wt % (actives basis) solution of amine oxide in deionized (DI) water was used to determine the Draves wet-out time (WOT) in seconds. 0.75 g of surfactant was dispersed in 1,500 ml of DI water. The wet-out time (WOT) in seconds is recorded in Table 7 (average of 3 measurements). LAO is Lauramine oxide (linear hydrophobe), Sigma catalog number 40236.

[4] = Salt thickening: viscosity of SLS/SLES/amine oxide formulation vs NaCl content; format: physicochemical; conditions: 1.4% amine oxide, 4.3% SLS, 4.3% SLES, shear rate 3/s
Experimental: The viscosity (cP; shear rate 3/s) of a simple formulation was measured as the salt concentration varied from 0 to 5 wt %.

[5] = Stain removal in cold water, swatch brightness, simple laundry liquid; conditions: 0.05% active additive, compared to LAO
Experimental: Amine oxides with linear and branched hydrophobes were compared in a screen for stain removal in cold water. Simple laundry liquid formulations were made that included only surfactants and builder.
Standard stain swatches were purchased from Testfabrics, Inc. (West Pittston, Pa.). […] The swatches were pre-cut into 2 inch squares. The test formulation was diluted with DI water to 0.06% total surfactant to make the wash solution. Additives were added at a final concentration of 0.05% active in the wash solution. Stained fabric swatches were added to the wash solution, washed and rinsed at 20° C., and air-dried. The average swatch brightness (L*) for each treatment, and standard deviation, are reported for 3 replicates.

Zein score - normalized to LAE10 (zein protein) | Compound | Foam volume (ml) 5 min [1] | Foam volume (ml) Initial [1] | Difference ([2]; Persil + 2% amine oxide) | Difference ([2]; Persil + 5% amine oxide) | Wet out time [3] | Viscosity ([4]; NaCl 0.5 wt %) | Viscosity ([4]; NaCl 1.0 wt %) | other results
0.586 | Alkylpolyglucoside [APG] |  |  |  |  |  |  |  | 
0.018 | CCCCC(CC)CC(CC)C[N+](C)(C)[O-] (centres unmarked) [Example 44, 2,4-diethyl-N,N-dimethyloctan-1-amine oxide] | 0 mL | 370 mL | 257 mL | 280 mL | >300 s |  |  | Initial foam volume ([2]; Persil Original 4.2 ml/L + 2% amine oxide (on wt laundry liquid)): 560 mL
 | 4-ethyl-N,N-2-trimethyloctan-1-amine oxide [Example 43] | 0 mL | 267 mL |  |  | >300 s |  |  | % decrease ([1]; foam volume, initial to 5 min): 100%
 | CCCCCCCCCCCC[N+](C)(C)[O-] [LAO, N,N-dimethyl laurylamine oxide, reference compound] | 500 mL |  | 54 mL | 6 mL | 33 s | 2 cP | 11 cP | 
4.670 | Linear alkylbenzene sulfonate [LABS] |  |  |  |  |  |  |  | 
 | CCCCC(CC)CC(C)C[N+](C)(C)[O-] (centres unmarked) [Example 43, 4-ethyl-N,N-2-trimethyloctan-1-amine oxide] |  |  |  |  |  | 7 cP | 36 cP | Viscosity ([4]; NaCl 4.0 wt %): 670 cP; Foam in the wash solution [5]: very little foam
